These results are taken from patent US20230086702A1, “SUBSTITUTED 2-AMINO-PYRAZOLYL-[1,2,4]TRIAZOLO[1,5A]PYRIDINE DERIVATIVES AND USE THEREOF” (The Johns Hopkins University, priority 2019, published 2023).

pIC50: −log10 of the molar value.

Data set [1] deals with T1, LZK (Homo sapiens, UniProt O43283).
T1 construct: 10 nM LZK, catalytic domain, Carna Biosiences in assay buffer; purchased Carna Biosciences ('Carna Biosiences' [sic])
T1 sequence (O43283 168-409 limits assumed): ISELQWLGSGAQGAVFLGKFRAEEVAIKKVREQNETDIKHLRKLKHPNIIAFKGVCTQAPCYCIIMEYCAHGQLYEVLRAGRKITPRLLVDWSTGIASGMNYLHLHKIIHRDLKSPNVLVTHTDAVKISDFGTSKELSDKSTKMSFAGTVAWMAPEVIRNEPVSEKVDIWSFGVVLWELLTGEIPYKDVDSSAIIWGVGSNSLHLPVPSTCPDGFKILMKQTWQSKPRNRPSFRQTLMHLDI
As to the kind of experiment: LZK biochemical assay (TR-FRET, MKK7 phosphorylation). The conditions noted are these: LZK catalytic domain, MKK7 substrate, 15 μM ATP.

Data set [2] addresses T2, DLK (Homo sapiens, UniProt Q12852).
T2 construct: 10 nM DLK, catalytic domain, Carna Biosiences; purchased Carna Biosciences ('Carna Biosiences' [sic])
T2 sequence (Q12852 125-366 limits assumed): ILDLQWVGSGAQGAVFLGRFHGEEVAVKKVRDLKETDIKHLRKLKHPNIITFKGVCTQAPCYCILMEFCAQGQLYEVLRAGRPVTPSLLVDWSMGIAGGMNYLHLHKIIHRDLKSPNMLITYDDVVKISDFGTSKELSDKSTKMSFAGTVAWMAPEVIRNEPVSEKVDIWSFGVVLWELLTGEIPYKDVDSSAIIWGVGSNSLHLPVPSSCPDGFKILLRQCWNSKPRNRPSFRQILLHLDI
As to the kind of experiment: DLK biochemical assay (TR-FRET, MKK7 phosphorylation). The following applies: DLK catalytic domain, MKK7 substrate, 60 μM ATP. The procedure, abridged: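 TR-FRET read-out (ratio of 665 nm acceptor to Eu donor channel) tracks MKK7 T275/S277 phosphorylation by DLK, using Eu-labelled anti-phospho-MKK7 and XL665-labelled anti-His on His-MKK7. Reactions were stopped and detected in pH 7.5 Tris buffer containing 100 mM EDTA, 100 mM NaCl, 200 mM KF and 0.01% Tween 20.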
(Time-resolved FRET reads energy transfer from a long-lived donor to a nearby acceptor.)

The test system of data set [3] is retina. As to the kind of experiment: Retinal structure and function after intravitreal injection (optical coherence tomography, electroretinographs). It counts as in vivo, mice. The conditions noted are these: 7 days following intravitreal injection of 10 mM, vs vehicle (DMSO) (FIG. 10, 11A, 11B). On the procedure:
Optical coherence tomography images of mice 7 days following intravitreal injections of either vehicle (DMSO) or 10 mM I-81 were obtained (FIG. 10). Retinal electroretinographs were also acquired (FIGS. 11A and 11B).

Data set [4] concerns hRGCs. As to the kind of experiment: hRGC survival under rotenone or CCCP (Cell Titer Glo). It counts as cell-based, human. The conditions noted are these: 1 uM rotenone or 30 uM CCCP, increasing doses, 72 hours (FIG. 4). As to the method:
(§1) H7 or H9 human embryonic stem cells or patient-derived induced pluripotent stem cells were modified to express mouse Thy1.2 and tdTomato from the BRN3B locus (Sluch et al., 2017). To produce RGCs, stem cells were dissociated to single cells and plated on Matrigel (Corning, USA) coated plates at a density of 52.6 K/cm^2 in mTeSR1 with […] blebbistatin, a time point designated as day minus 1 (d-1). One day after plating, mTeSR1 was completely exchanged for N2B27 media [1:1 mix of DMEM/F12 and Neurobasal with GlutaMAX Supplement, antibiotic-antimycotic, 1% N2 Supplement, and 2% B27 Supplement (all from ThermoFisher Scientific)] to start differentiation; this day was designated as day 0 (d0). Small molecules were added to the cells on day 1 (dl), 24 hours after d0. Small molecule addition was done in fresh N2B27 media. Cells were fed with a full exchange of N2B27 media every other day unless a small molecule was to be removed or added on that day of differentiation, requiring daily feeding. […] After 35 days in culture, when abundant RGCs have appeared (indicated by red fluorescence), cultures were dissociated into a single cell suspension. […]
hRGCs were challenged with (A) 1 uM rotenone or (B) 30 uM CCCP in the presence of increasing doses of I-84 for 72 hours. Cell survival was quantified using Cell Titer Glo, an ATP-based luminescent assay.
Background: In ATP-based viability assays light output follows the ATP content of the culture.

The subject of data set [5] is human stem cell derived RGCs. As to the kind of experiment: Protection of human stem cell derived RGCs in models of mitochondrial injury (FIG. 4). The data set is classed as cell-based. As to the method: as §1, with “d0.” for “d0. Small molecule addition was done in fresh N2B27 media. Cells were fed with a full exchange of N2B27 media every other day unless a small molecule was to be removed or added on that day of differentiation, requiring daily feeding.”
In order to test compounds, RGCs were plated in 96- or 384-well Nunclon or Falcon dishes. […] For both sets of RGCs, increasing doses of the kinase inhibitors was added at the time of injury and survival was quantitated after 72 hours using CellTiter-Glo (Promega, Madison) and measuring relative light units (RLU) or by staining cultures with conventional viability dyes (i.e. ethidium homodimer exclusion, calcein AM uptake) and measuring survival by automated image analysis.

A word on the pIC50: it is the IC50 on a negative log10 scale, so that one unit is a factor of ten. With `CC[C@H](C)NC(=O)c1cc(-c2cnn([C@H](c3ccc(C(F)(F)F)nc3)C3CCN(C(=O)OC(C)(C)C)CC3)c2)cn2nc(N)nc12` [Example I-81, tert-Butyl 4-{(4-{2-amino-8-[(2S)-butan-2-ylcarbamoyl][1,2,4]triazolo[1,5-a]pyridin-6-yl}-1H-pyrazol-1-yl)[6-(trifluoromethyl)pyridin-3-yl]methyl}piperidine-1-carboxylate], the pIC50 in data set [1] was 8.07; in data set [2] it was 8.18. Also, in data set [3], the “structural or functional toxicity to the retina” value is recorded as “did not induce structural or functional toxicity to the retina”.

As to `CC[C@H](C)NC(=O)c1cc(-c2cnn([C@H](c3ccc(C(F)(F)F)nc3)C3CCN(C(C)=O)CC3)c2)cn2nc(N)nc12` [Example I-84, 6-(1-{(1-Acetylpiperidin-4-yl)[6-(trifluoromethyl)pyridin-3-yl]methyl}-1H-pyrazol-4-yl)-2-amino-N-[(2S)-butan-2-yl][1,2,4]triazolo[1,5-a]pyridine-8-carboxamide], the pIC50 was 8.92 in data set [1] and 9.30 in data set [2]. Further, in data set [4], the “cell survival of hRGCs” value was “protective to human stem cell derived RGCs in models of mitochondrial injury”. In addition, in data set [5], the “protection of human stem cell derived RGCs” value is “protective”.
